According to BigSolDB 2.1:

CC(=O)Nc1ccc(O)cc1
solubility (mole fraction)
Conditions | 298.15 K | 303.15 K | 308.15 K | 313.15 K | 318.15 K | 323.15 K | 328.15 K | 333.15 K
in transcutol | 0.111 | 0.118 | 0.126 | 0.134 | 0.144 | 0.153 | 0.166 | 0.178
in water | 0.0016 | 0.0019 | 0.0023 | 0.0027 | 0.0033 | 0.004 | 0.0047 | 0.0055
